{
  "source": "ChEMBL document CHEMBL1201862",
  "about": "“PubChem BioAssay data set” (2004)",
  "key": {"Phospholipase D1": {"biological_target": "Phospholipase D1 (Homo sapiens, UniProt Q13393)", "sequence (Q13393 whole entry)": "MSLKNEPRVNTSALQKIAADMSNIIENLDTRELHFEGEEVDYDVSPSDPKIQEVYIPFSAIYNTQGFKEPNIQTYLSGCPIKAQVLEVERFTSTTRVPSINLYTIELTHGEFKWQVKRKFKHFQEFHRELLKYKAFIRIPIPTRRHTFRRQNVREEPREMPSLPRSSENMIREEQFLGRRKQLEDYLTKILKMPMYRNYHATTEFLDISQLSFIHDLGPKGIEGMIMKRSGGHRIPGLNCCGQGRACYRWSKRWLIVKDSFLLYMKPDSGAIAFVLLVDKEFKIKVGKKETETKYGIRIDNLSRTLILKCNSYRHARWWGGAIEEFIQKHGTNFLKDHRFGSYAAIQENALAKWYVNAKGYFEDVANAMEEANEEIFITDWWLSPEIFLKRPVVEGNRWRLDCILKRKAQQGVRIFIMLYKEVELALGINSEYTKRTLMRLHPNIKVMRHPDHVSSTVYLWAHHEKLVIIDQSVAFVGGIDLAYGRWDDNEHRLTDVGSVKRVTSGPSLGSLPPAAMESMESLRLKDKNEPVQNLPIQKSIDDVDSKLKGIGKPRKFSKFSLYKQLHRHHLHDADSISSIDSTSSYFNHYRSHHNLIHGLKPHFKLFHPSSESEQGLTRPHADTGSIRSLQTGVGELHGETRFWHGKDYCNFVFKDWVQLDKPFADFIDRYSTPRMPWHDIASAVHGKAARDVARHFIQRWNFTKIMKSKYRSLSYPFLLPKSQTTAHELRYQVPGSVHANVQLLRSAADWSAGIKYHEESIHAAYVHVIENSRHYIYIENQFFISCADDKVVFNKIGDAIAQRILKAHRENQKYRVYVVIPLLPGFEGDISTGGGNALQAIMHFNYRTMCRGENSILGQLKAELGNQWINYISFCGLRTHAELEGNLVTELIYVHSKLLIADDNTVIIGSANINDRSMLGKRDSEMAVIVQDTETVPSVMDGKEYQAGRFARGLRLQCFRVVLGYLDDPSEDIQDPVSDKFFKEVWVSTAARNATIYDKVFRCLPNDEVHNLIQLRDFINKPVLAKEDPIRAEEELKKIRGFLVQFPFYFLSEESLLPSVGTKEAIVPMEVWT", "experiment": "cellular phospholipase D1 inhibition IC50 – cell-based, dose response (AID 602151);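 note: cellular PLD1 assay in Calu-1 cells stimulated with PMA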", "type": "functional"}, "Phospholipase D2": {"biological_target": "Phospholipase D2 (Homo sapiens, UniProt O14939)", "sequence (O14939 whole entry)": "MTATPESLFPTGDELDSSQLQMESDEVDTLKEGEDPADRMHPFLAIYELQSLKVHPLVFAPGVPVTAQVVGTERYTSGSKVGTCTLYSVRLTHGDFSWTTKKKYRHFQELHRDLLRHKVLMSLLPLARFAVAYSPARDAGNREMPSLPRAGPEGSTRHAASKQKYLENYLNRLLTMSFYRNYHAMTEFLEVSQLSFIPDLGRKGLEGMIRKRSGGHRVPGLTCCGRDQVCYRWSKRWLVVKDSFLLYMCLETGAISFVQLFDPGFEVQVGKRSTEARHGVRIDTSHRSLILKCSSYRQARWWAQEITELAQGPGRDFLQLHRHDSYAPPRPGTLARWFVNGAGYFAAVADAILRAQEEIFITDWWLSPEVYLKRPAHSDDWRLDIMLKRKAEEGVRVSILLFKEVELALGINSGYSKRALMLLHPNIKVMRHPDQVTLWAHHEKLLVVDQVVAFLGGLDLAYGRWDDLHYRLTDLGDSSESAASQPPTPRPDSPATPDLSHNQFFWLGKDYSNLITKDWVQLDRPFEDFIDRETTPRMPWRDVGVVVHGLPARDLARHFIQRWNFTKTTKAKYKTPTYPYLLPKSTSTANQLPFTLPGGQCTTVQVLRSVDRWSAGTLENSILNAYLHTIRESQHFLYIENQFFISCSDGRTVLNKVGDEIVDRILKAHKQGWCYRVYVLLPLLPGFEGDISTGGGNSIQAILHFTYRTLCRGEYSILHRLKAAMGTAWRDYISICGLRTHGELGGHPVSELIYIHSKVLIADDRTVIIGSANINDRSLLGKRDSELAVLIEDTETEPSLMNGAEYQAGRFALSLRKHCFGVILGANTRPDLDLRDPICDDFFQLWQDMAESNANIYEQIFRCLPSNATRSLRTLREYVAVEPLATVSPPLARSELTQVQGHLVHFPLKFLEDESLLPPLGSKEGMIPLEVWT", "experiment": "cellular phospholipase D2 inhibition IC50 – cell-based, dose response (AID 602147);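 note: cellular assay in HEK293 cells overexpressing GFP-tagged PLD2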", "type": "functional"}, "[1]": {"biological_target": "Latent membrane protein 1 (Human herpesvirus 4 (strain B95-8), UniProt P03230)", "sequence (P03230 whole entry)": "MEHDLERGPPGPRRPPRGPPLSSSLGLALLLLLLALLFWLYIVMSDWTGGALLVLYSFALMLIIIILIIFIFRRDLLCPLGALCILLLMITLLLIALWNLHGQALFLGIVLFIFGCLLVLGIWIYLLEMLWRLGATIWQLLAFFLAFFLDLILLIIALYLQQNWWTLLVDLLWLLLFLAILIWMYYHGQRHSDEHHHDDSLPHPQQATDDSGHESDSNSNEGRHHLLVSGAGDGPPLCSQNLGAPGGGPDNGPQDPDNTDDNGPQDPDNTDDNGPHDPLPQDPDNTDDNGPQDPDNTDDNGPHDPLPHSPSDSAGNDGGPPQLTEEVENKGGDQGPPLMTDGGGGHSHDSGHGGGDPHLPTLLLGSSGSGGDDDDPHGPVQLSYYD", "experiment": "LMP1 TES1 pathway selectivity over dsRED control – imaging, HEK293T, dual-color eGFP/dsRED, cherry-picks, selectivity assay for LMP1 NF-kB inhibitor project, dose response (AID 588398)", "type": "functional, cell-based"}, "HEK293": {"tested_on": "HEK293", "experiment": "EBV LMP1 TES2 canonical NF-kB signalling blockers – cell-based, HEK293, luciferase, cherry-pick, dose response (AID 588343)", "type": "functional", "settings": "Homo sapiens"}, "[2]": {"experiment": "HEK-293T cell viability reduction – luminescence, B-cell screen hits, cytotoxicity control for BCR NF-kB inhibitor project, dose response (AID 489021);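 note: cells exposed to compound for about 14 hours before viability readout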", "type": "functional, cell-based"}, "[3]": {"experiment": "blockers of CAL PDZ–TMR peptide complex – biochemical, fluorescence polarization, untagged CAL PDZ, cherry-pick, set 2, dose response (AID 602254)", "type": "functional"}, "[4]": {"experiment": "NIH-3T3 fibroblast cytotoxicity, dose response, cytotoxicity control, cell-based, fluorescence, Alamar Blue, secondary assay (AID 2327);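 note: NIH-3T3 mouse fibroblasts cultured with fluconazole at 8 µg/mL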", "type": "functional"}, "[5]": {"biological_target": "ATP-dependent molecular chaperone HSP82 (Candida albicans (strain WO-1) (Yeast), UniProt C4YTQ8)", "sequence (C4YTQ8 whole entry)": "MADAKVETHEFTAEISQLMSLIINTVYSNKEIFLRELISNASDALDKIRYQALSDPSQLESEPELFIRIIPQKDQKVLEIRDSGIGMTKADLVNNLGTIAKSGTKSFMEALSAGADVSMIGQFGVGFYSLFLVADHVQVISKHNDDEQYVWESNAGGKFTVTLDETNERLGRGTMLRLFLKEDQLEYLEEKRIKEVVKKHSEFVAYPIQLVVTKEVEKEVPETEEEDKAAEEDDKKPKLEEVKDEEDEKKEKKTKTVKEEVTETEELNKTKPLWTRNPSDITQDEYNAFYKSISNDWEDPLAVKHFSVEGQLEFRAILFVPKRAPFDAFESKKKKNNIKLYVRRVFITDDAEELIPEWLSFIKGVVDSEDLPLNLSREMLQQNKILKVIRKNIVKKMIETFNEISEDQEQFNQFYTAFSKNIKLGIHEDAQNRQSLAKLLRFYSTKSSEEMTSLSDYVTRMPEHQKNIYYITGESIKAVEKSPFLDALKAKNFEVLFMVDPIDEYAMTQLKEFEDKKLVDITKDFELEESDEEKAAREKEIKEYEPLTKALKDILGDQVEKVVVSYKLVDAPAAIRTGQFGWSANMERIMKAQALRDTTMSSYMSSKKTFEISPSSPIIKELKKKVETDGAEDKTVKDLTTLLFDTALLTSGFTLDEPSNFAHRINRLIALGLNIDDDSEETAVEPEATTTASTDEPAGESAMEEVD", "experiment": "steroid-induced GRE reporter decrease in yeast – S. cerevisiae, luminescence, Hsp90 inhibitor project, dose response (AID 2400);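 note: beta-galactosidase luminescence from glucocorticoid response element reporter as proxy for Hsp90 function; inhibitor potency where signal loss means Hsp90 inhibition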", "type": "functional, cell-based"}, "[6]": {"biological_target": "Serine/threonine-protein phosphatase (Candida dubliniensis (strain CD36 / CBS 7987 / NCPF 3949 / NRRLY-17841) (Yeast), UniProt B9W6M3)", "sequence (B9W6M3 whole entry)": "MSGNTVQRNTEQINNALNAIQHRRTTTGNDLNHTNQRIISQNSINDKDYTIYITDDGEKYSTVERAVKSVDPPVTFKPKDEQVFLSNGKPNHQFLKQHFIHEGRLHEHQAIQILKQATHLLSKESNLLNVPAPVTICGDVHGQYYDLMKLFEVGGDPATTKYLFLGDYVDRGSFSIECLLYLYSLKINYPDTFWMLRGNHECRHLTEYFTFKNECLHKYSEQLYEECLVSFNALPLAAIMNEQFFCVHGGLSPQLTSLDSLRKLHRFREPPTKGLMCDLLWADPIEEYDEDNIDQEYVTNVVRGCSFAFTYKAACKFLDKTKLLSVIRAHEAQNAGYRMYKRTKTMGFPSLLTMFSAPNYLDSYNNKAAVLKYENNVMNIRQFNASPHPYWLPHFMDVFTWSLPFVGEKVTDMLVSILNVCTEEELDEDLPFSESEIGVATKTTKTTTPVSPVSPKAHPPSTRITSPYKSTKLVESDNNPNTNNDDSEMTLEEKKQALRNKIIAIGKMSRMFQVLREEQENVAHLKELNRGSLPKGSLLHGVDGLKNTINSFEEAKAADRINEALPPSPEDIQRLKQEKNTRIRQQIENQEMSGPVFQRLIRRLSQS", "experiment": "blockers of CaCl2-induced CDRE-lacZ signaling – S. cerevisiae, luminescence, secondary, dose response (AID 2388);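 note: yeast reporter cells carrying a calcineurin-responsive lacZ construct stimulated with calcium chloride; luminescent beta-galactosidase reporter signal in whole cells rather than isolated phosphatase activity; potency for inhibition where a drop in reporter signal means calcineurin blockade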", "type": "functional, cell-based"}, "[7]": {"experiment": "fluconazole-exposed Candida albicans growth modulators – fluorescence, retest, confirmation (AID 2467)", "type": "functional, cell-based"}, "[8]": {"biological_target": "T1, High affinity choline transporter 1 (Homo sapiens, UniProt Q9GZV3)", "T1 sequence (Q9GZV3 whole entry)": "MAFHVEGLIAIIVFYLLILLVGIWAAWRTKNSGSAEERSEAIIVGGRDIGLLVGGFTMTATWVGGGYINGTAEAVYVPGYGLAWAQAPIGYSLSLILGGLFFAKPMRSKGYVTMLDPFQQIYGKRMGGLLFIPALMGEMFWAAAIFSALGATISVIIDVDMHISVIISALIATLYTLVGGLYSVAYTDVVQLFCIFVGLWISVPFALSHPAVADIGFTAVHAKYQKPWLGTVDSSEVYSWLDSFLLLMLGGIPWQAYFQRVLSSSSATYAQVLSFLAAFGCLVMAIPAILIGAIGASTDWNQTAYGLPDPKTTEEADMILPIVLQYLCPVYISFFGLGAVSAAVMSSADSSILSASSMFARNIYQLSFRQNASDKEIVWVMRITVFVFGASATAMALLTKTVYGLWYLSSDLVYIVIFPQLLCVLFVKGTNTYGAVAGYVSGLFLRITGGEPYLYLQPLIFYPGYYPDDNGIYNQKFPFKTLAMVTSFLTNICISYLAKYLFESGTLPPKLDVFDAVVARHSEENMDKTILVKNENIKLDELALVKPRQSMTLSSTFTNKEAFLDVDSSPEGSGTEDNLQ", "experiment": "human choline transporter radiolabel uptake blockers – cell-based, 3H-choline uptake, CHT LV-AA trafficking mutant, CRC, dose response (AID 602208)", "type": "functional"}, "[9]": {"biological_target": "T1, High affinity choline transporter 1", "experiment": "human choline transporter blockers, potency – cell-based, 10-point CRC, membrane potential dye, dose response (AID 588401);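 note: membrane potential dye fluorescence of choline-evoked depolarization via CHT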", "type": "functional"}, "[10]": {"biological_target": "T1, High affinity choline transporter 1", "experiment": "human choline transporter blockers, potency – cell-based, 5-point CRC, membrane potential dye, dose response (AID 504840)", "type": "functional"}, "[11]": {"biological_target": "Potassium voltage-gated channel subfamily KQT member 2 (Rattus norvegicus, UniProt O88943)", "sequence (O88943 whole entry)": "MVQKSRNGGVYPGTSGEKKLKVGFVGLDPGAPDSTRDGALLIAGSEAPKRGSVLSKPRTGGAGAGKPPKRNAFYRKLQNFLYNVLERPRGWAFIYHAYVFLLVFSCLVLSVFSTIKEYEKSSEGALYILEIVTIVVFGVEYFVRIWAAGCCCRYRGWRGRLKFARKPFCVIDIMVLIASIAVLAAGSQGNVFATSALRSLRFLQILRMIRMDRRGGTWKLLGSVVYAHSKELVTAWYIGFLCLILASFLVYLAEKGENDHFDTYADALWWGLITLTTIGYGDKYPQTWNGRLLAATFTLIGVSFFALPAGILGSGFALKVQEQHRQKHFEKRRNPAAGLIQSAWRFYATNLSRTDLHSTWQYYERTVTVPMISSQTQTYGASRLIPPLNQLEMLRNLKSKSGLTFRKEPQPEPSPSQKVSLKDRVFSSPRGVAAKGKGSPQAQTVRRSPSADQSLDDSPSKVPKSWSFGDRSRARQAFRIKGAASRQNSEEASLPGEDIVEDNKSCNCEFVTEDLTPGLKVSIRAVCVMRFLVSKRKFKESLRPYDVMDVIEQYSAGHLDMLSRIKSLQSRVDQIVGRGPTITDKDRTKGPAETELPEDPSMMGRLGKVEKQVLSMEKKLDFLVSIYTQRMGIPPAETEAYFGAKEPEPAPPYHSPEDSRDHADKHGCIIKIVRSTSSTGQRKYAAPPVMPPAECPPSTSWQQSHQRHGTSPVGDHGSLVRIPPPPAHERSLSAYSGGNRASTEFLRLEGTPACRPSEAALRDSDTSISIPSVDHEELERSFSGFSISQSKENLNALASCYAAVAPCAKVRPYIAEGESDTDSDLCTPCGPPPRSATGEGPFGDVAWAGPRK", "experiment": "blockers of KCNQ2 channel current – cell-based, automated electrophysiology, set II, rat KCNQ2, dose response (AID 588637)", "type": "functional"}},
  "note": "Calls of active or inactive are those of the source.",
  "data": [
    {"smiles": "Cc1ccc(C(=O)N[C@@H](C)CN2CCC(n3c(=O)[nH]c4ccc(F)cc43)CC2)cc1", "values": [
      {"measurement": "IC50", "setting": "Phospholipase D1", "result": "0.008 µM (active)"},
      {"measurement": "IC50", "setting": "Phospholipase D2", "result": "0.18 µM (active)"}
    ]},
    {"smiles": "COc1cc(-c2[nH]c(C(=O)NCC3CCCO3)cc3c4ccccc4nc2-3)cc(OC)c1OC", "note": "(stereo unspecified)", "values": [
      {"measurement": "AC50", "setting": "[1]", "result": "44.3 µM (active)"},
      {"measurement": "AC50", "setting": "HEK293", "result": "37.8 µM (active)"},
      {"measurement": "IC50", "setting": "[2]", "result": "51.8 µM (inactive)"}
    ]},
    {"smiles": "COCCSc1nnc(NC(=O)Cc2ccc(OC)cc2)s1", "values": [
      {"measurement": "AC50", "setting": "[3]", "result": "101 µM (active)"}
    ]},
    {"smiles": "COc1ccc(N(CC(=O)Nc2ccccc2C(N)=O)S(=O)(=O)c2ccc(C)c([N+](=O)[O-])c2)cc1", "values": [
      {"measurement": "EC50", "setting": "[4]", "result": "> 150 µM (inactive)"},
      {"measurement": "EC50", "setting": "[5]", "result": "> 160 µM (inactive)"},
      {"measurement": "EC50", "setting": "[6]", "result": "> 180 µM (inactive)"},
      {"measurement": "EC50", "setting": "[7]", "result": "0.095 µM (active)"}
    ]},
    {"smiles": "COc1ccc(C(=O)NC(C)Cc2cnccn2)cc1OC1CCN(C(C)C)CC1", "note": "(stereo unspecified)", "values": [
      {"measurement": "IC50", "setting": "[8]", "result": "7.51 µM (active)"},
      {"measurement": "IC50", "setting": "[9]", "result": "4.47 µM (active)"},
      {"measurement": "IC50", "setting": "[10]", "result": "9.9 µM (active)"}
    ]},
    {"smiles": "COc1cc(C(=O)Nc2cccc(C)c2C)c(Br)c(OC)c1OC", "values": [
      {"measurement": "IC50", "setting": "[11]", "result": "0.633 µM (active)"}
    ]},
    {"smiles": "CC(C)[C@@H](CN1CCC(n2c(=O)[nH]c3ccccc32)CC1)NC(=O)c1ccc2ccccc2c1", "values": [
      {"measurement": "IC50", "setting": "Phospholipase D1", "result": "5.6 µM (active)"},
      {"measurement": "IC50", "setting": "Phospholipase D2", "result": "20 µM (active)"}
    ]}
  ]
}
